The text below walks through data of ChEMBL document CHEMBL3853314, “G-Protein-Coupled Receptor Kinase 2 (GRK2) Inhibitors: Current Trends and Future Perspectives” (J Med Chem, 2016).

Peptide text beside a SMILES is read from it.

Usually IC50 stands for the concentration that inhibits the measured activity by half. A word on the Kd: it is the equilibrium constant for the complex coming apart.

Test [1] has as its target T1, Beta-adrenergic receptor kinase 1 (Bos taurus, UniProt P21146).
T1 sequence (P21146 whole entry): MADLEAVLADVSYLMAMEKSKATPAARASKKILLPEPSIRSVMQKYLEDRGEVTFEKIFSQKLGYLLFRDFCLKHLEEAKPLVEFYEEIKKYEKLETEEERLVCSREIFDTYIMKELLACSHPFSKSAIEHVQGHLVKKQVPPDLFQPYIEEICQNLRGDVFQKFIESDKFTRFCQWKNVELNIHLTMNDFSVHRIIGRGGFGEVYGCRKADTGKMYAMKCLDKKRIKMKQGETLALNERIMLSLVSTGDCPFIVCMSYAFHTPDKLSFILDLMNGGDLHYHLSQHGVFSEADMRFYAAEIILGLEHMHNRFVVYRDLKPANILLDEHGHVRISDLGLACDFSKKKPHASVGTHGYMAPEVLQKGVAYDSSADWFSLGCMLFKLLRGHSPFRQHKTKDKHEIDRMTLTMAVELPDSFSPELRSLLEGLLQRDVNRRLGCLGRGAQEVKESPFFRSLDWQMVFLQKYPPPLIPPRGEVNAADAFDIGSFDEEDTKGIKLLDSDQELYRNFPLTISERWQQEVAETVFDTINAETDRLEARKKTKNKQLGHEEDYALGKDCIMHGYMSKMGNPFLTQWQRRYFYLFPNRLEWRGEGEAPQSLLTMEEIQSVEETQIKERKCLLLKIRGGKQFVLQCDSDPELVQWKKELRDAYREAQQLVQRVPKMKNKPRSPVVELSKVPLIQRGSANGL
The test is described as follows: Inhibition of bovine cerebral cortex GRK2 assessed as decrease in phosphorylation of beta-adrenoceptor in presence of [gamma-32P]-ATP by SDS-PAGE analysis.

A further test concerns the target T2, Rhodopsin kinase GRK1 (Bos taurus, UniProt P28327).
T2 sequence (P28327 whole entry): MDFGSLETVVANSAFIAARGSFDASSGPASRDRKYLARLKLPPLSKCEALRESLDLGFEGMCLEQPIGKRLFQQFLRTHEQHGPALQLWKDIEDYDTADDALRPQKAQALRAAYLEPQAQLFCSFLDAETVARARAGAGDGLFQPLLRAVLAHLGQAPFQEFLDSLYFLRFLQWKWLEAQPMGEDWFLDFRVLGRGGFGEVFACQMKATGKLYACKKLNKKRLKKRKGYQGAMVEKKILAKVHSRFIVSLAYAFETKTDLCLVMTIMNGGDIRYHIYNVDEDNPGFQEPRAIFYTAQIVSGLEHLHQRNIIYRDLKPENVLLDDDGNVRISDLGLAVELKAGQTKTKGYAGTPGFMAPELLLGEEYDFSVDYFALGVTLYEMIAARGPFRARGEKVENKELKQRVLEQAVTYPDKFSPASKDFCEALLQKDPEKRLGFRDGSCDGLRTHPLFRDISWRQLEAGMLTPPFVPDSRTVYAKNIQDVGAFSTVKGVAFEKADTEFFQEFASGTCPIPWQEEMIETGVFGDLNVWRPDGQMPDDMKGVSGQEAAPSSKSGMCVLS
Description: Inhibition of bovine C-terminal truncated GRK1 (535 residues) assessed as decrease in phosphorylation of urea-washed bovine rod outer segments preincubated for 30 mins followed by ATP addition and light exposure measured after 5 to 10 mins by SDS-PAGE analysis.

The target of test [2] is T3, cGMP-dependent protein kinase 1 (Homo sapiens, UniProt Q13976).
T3 sequence (Q13976 whole entry): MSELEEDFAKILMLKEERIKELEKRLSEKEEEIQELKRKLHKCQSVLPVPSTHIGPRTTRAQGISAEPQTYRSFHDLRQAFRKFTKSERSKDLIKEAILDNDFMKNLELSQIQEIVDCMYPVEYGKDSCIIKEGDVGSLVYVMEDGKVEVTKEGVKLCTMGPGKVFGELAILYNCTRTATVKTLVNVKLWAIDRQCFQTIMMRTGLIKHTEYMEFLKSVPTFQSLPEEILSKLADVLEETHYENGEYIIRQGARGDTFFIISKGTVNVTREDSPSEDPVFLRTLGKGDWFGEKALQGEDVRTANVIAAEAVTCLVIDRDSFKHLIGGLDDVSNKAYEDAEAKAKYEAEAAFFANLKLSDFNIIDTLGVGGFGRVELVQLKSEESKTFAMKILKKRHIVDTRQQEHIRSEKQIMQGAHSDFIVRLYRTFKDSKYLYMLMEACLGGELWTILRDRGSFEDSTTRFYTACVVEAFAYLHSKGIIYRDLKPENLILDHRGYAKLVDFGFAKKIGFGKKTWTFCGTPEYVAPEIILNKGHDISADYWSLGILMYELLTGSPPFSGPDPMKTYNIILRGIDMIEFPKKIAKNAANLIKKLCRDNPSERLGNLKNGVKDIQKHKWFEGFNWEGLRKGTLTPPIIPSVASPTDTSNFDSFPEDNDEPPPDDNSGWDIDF
The test is described as follows: Binding affinity to human recombinant N-terminal GST-tagged PKGalpha expressed in Baculovirus infected insect Sf9 cells using RKRSRAE as substrate in presence of [gamma-32P]ATP.

Test [3] concerns the target Protein kinase C alpha type (Homo sapiens, UniProt P17252). Description: Binding affinity to PKCalpha (unknown origin) using Lys-Arg-Thr-Leu-Arg-Arg as substrate after 8 mins in presence of [gamma-32P]ATP by liquid scintillation spectrometry.
The target of test [4] is Protein kinase C beta type (Homo sapiens, UniProt P05771). Description: Binding affinity to PKCbeta2 (unknown origin) using Lys-Arg-Thr-Leu-Arg-Arg as substrate after 8 mins in presence of [gamma-32P]ATP by liquid scintillation spectrometry.
Chain of Protein kinase C beta type (P05771 whole entry): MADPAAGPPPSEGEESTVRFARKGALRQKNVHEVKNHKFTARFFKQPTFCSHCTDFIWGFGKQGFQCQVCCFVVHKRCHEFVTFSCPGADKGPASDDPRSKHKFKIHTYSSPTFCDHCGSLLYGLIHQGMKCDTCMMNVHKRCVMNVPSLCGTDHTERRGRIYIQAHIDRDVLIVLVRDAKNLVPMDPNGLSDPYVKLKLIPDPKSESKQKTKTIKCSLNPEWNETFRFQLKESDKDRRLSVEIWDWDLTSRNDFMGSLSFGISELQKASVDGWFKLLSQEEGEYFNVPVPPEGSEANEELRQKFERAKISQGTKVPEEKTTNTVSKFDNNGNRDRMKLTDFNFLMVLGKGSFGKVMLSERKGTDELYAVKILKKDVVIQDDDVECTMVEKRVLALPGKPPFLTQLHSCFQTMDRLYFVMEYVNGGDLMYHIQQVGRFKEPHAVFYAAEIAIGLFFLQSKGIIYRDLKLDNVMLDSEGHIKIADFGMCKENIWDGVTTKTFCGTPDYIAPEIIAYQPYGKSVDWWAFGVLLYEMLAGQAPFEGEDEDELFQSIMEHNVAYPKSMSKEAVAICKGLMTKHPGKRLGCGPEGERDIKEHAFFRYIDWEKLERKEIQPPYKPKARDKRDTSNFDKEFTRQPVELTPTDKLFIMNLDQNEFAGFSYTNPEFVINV

As for `CC(C)C[C@H](NC(=O)[C@H](CCCNC(=N)N)NC(=O)[C@H](CCC(=O)O)NC(=O)[C@H](Cc1ccccc1)NC(=O)[C@H](CCCCN)NC(=O)[C@H](C)N)C(=O)N[C@@H](CCC(N)=O)C(=O)N[C@H](C(=O)N[C@H](C(=O)N[C@H](C(=O)N[C@@H](CC(N)=O)C(=O)O)[C@@H](C)O)C(C)C)[C@@H](C)O` (H-AKFERLQTVTN-OH), the IC50 in test [1] worked out at 1600 µM.

Take `O=C(N[C@@H]1CNCCC[C@H]1OC(=O)c1cc(O)c(C(=O)c2c(O)cccc2C(=O)O)c(O)c1)c1ccc(O)cc1` [BALANOL]: the IC50 at Rhodopsin kinase GRK1 was 4.1 µM. In addition, the Kd was 0.0016 µM in test [2], 0.0064 µM in test [3] and 0.0018 µM in test [4].
